Assay results as given in US20080207578A1, “METHOD OF INDUCING APOPTOSIS IN CANCER TREATMENT BY USING CUCURBITACINS” (priority 2006, published 2008).

Experiments:
[1] = system: human cancer cell lines (18 selected from the 59-NCI panel); experiment: Annexin V-FITC/propidium iodine flow cytometric apoptosis assay, 18 selected cell lines; assay type: cell-based; settings: 48 hours; for cell lines in which apoptosis was induced: GI50, 1/2 GI50 and 1/4 GI50 of particular cell line; for dose dependence of apoptosis induction (in words): three concentrations
Protocol: Human cancer cell lines from the 59-NCI Cancer Cell Line Panel including leukemia, melanoma and cancers of breast, brain, colon, lung, ovary, prostate and kidney were purchased from the National Institute of Cancer. […] They were treated with cucurbitacin B and cucurbitacin D at three different concentrations to elucidate their ability to induce any changes in cell cycle.
Cancer cell lines were maintained in RPMI 1640 supplemented with 5% Fetal Bovine Serum, 2 mM L-glutamine and 1% Penicillin/Streptomycin at 37° C. with 5% CO2. All chemicals were purchased from Sigma unless specified otherwise.
Cells were inoculated into tissue culture flask at cell concentrations from 50000 to 400,000 cells/ml according to the NCl guideline. The cells were incubated at 37° C. with 5% CO2 for 24 hours. Cucurbitacin B and cucurbitacin D were added to the cells of final concentrations ranging from 6 to 350 nM (GI50, ½ GI50 and ¼ GI50 of particular cell line) for 48 hours at 37° C. with 5% CO2. Cells ([…]) were then harvested and stained with 5 μl Annexin V-FITC and 10 μl propidium iodine (Becton Dickinson, Calif., USA) for 15 minutes at room temperature. Ten thousands events were collected by the FACScaliber and the percentage of different cell populations were analyzed by the CellQuest™ software (Becton Dickinson).

[2] = system: HL60 (TB) leukemia cell line; experiment: Cell cycle analysis by PI flow cytometry, HL60 (TB); assay type: cell-based, human; settings: 48 hours
[3] = system: human cancer cell lines (18 selected from the 59-NCI panel); experiment: Cell cycle analysis by PI flow cytometry, 18 selected cell lines; assay type: cell-based; settings: GI50, 1/2 GI50 and 1/4 GI50 of particular cell line, 48 hours
[4] = system: phosphorylated-ERK, cyclin E, phosphorylated-Rb, c-myc in HL60 cells; experiment: Western blot of MAPK / cell cycle signaling proteins in HL60 cells; assay type: cell-based, human
Protocol: (§1) Control cells, as well as cells treated with cucurbitacin B or cucurbitacin D, were harvested and collected by centrifugation. Whole cell extracts were then prepared by lysing the cells using 4% sodium dodecyl sulfate (SDS) gel sample buffer. Cell extracts were boiled for 10 min and chilled on ice, subjected to 12% SDS-polyacrylamide gel electrophoresis, and transferred to a PVDF membrane. Each membrane was cut into to two pieces with one piece incubated at 4^˜ overnight with antibodies against cell cycle signaling proteins, such as ERK, phosphorlated-ERK, p38, phosphorlated-p38, Cyclin E, Retinoblastoma, phosphalated-Retinoblastoma and c-myc, and apoptotic protein (PARP). β-actin was used as a control for protein loading. All antibodies were obtained from Cell signaling Technologies (USA). Then membranes were incubated at 37^˜ for 1 h with secondary antibody conjugated with peroxidase, and the signal was detected using chemiluminescence detection reagent. The relative protein level was calculated as the ratio of the optical density of the protein of interest to that of β-actin.

[5] = system: 59 human cancer cell lines; experiment: Sulforhodamine B (SRB) growth inhibition assay, 59-NCI Cancer Cell Line Panel; assay type: cell-based; settings: 0.488 to 4000 nM, 48 hours
Description: (§2) Human cancer cell lines from the 59-NCl Cancer Cell Line Panel including leukemia, melanoma and cancers of breast, brain, colon, lung, ovary, prostate and kidney, were purchased from the National Institute of Cancer (USA). The growth inhibition (GI50) of these cell lines treated with cucurbitacin B and cucurbitacin D in various concentrations was investigated.
(§3) 59 human cancer cell lines were maintained in RPMI 1640 (Invitrogen Life Technologies, Calif., USA) supplemented with 5% Fetal Bovine Serum, 2 mM L-glutamine and 1% Penicillin/Streptomycin (Invitrogen Life Technologies) at 37° C. with 5% CO2. All chemicals were purchased from Sigma (St. Louis, Mo., USA) unless specified otherwise.
(§4) Sulforhodamine B (SRB) assay was applied to determine the cytostatic effect of cucurbitacin B and cucurbitacin D. SRB is a dye which binds to cellular proteins and will be dissolved in base. The biomass of total protein can be measured at 520 nm using a plate reader.
(§5) Cells were inoculated into 96-well microtiter plates including “Time zero” (Tz) plates in 100 μl at cell concentrations from 5000 to 40,000 cells per well according to NCI guideline. The cells were incubated at 37° C. with 5% CO2 for 24 hours. […] Bound SRB was solubilized with 100-200 ul per well of 10 mM trizma base and absorbance was measured at a wavelength of 520 nm. The percentage of growth inhibition was calculated as follows: […]

[6] = system: PARP in HL 60 human leukemia cells; experiment: Western blot of PARP cleavage in HL60 cells; assay type: cell-based
Protocol: as §1

[7] = system: prostate cancer cell lines; experiment: SRB growth inhibition assay, prostate cancer group; assay type: cell-based, human; settings: most sensitive type to cucurbitacin B, 48 hours
Description: as §2, §3, §4, §5

melanoma cell lines = experiment: SRB growth inhibition assay, melanoma group; assay type: cell-based, human; settings: most sensitive type to cucurbitacin D, 48 hours
Description: as §2, §3, §4, §5

SF-295 CNS cell line = experiment: Cell cycle analysis by PI flow cytometry, SF-295; assay type: cell-based, human; settings: SF-295, 48 hours

CC(=O)OC(C)(C)/C=C/C(=O)[C@](C)(O)[C@H]1[C@H](O)C[C@@]2(C)[C@@H]3CC=C4[C@H](C[C@H](O)C(=O)C4(C)C)[C@]3(C)C(=O)C[C@]12C [cucurbitacin B]
cell lines in which apoptosis was induced [1]: 9 out of 18
dose dependence of apoptosis induction (in words) [1]: induced apoptosis in a dose-dependent manner
effect on cell cycle (in words) [2]: G2/M arrest and endoreduplication
cell lines arrested in G2/M [3]: 6 out of 18
ERK (in words) [4]: ERK activation
c-myc (in words) [4]: down-regulation of c-myc
cyclin E (in words) [4]: cyclin E down-regulation
retinoblastoma phosphorylation (in words) [4]: inhibition of retinoblastoma's phosphorylation
growth inhibition of 59 cancer cell lines (in words) [5]: inhibited the growth of 59 cancer cell lines dose-dependently
PARP (apoptosis marker) in western blot (in words) [6]: cleavage of PARP
GI50 [7]: 0.017 µM

CC(C)(O)/C=C/C(=O)[C@](C)(O)[C@H]1[C@H](O)C[C@@]2(C)[C@@H]3CC=C4[C@@H](C[C@H](O)C(=O)C4(C)C)[C@]3(C)C(=O)C[C@]12C [cucurbitacin D]
cell lines in which apoptosis was induced [1]: 11 out of 18
dose dependence of apoptosis induction (in words) [1]: induced apoptosis in a dose-dependent manner
GI50 (melanoma cell lines): 0.06 µM
cell lines arrested in G2/M [3]: 9 out of 18
ERK (in words) [4]: ERK activation
c-myc (in words) [4]: down-regulation of c-myc
cyclin E (in words) [4]: cyclin E down-regulation
retinoblastoma phosphorylation (in words) [4]: inhibition of retinoblastoma's phosphorylation
effect on cell cycle (in words) (SF-295 CNS cell line): G2/M arrest and endoreduplication
growth inhibition of 59 cancer cell lines (in words) [5]: inhibited the growth of 59 cancer cell lines dose-dependently
PARP (apoptosis marker) in western blot (in words) [6]: cleavage of PARP
